For data set [1] the following is noted: 313.15 K; 101.33 kPa; Liquid; Vibrating tube method.
The nature of data set [2]: xn = mol fraction of the nth substance listed. The settings on record: 101 kPa, Liquid; for mass density: Vibrating tube method; for excess molar volume: Direct dilatometry.

± gives the expanded uncertainty stated by the source.

As for `CCCCCCCCCCCCCCCC` [hexadecane], the mass density (usually mass per unit of volume) in data set [1] is reported as 762.9 ± 0.3 kg/m3.

Turning to `CCCCCCCCCCCCCCCCCCCCCC` [docosane] + CCCCCCCCCC, the mass density in data set [2] (313.15 K, x2 = 0.5001) is listed as 758.9 ± 0.2 kg/m3.

As to `C1CCCCC1` [cyclohexane], in data set [1], the mass density is given as 759.8 ± 0.2 kg/m3.

On to `CCCCCCCCCCCCCCCCCCCCCCCC` [tetracosane] + CCCCCCCC, for which the mass density in data set [2] (313.15 K, x2 = 0.5) turned out to be 758.8 ± 0.3 kg/m3; in data set [2] (315.65 K, x2 = 0.5) it was 757.1 ± 0.3 kg/m3.

Turning to `CCCCCCCCCCCCCCCCCC` [octadecane] + CCCCCCCCCCCCCC, the mass density in data set [2] (313.15 K, x2 = 0.5001) came to 758.4 ± 0.2 kg/m3.

As for `C1CCCCCC1` [cycloheptane] + C1CCCC1, the mass density in data set [2] (313.15 K, x2 = 0.4999) is recorded as 762.9 ± 0.2 kg/m3.

As to `CCCCCCCCCCCCCCCC` [hexadecane] + C1CCCCC1, the excess molar volume in data set [2] (313.15 K, x2 = 0.0083) is recorded as 1.32e-08 ± 2.8e-09 m3/mol; in data set [2] (313.15 K, x2 = 0.03441), 5.31e-08 ± 2.9e-09 m3/mol; in data set [2] (313.15 K, x2 = 0.0839) it was 1.341e-07 ± 3.1e-09 m3/mol; in data set [2] (313.15 K, x2 = 0.1372), 2.074e-07 ± 3.8e-09 m3/mol; in data set [2] (313.15 K, x2 = 0.2221) it was 3.185e-07 ± 5.1e-09 m3/mol; in data set [2] (313.15 K, x2 = 0.3029), 4.088e-07 ± 6.6e-09 m3/mol. The excess molar volume was 4.671e-07 ± 7.7e-09 m3/mol in data set [2] (313.15 K, x2 = 0.3641); 5.136e-07 ± 8.8e-09 m3/mol in data set [2] (313.15 K, x2 = 0.4199); 5.593e-07 ± 1e-08 m3/mol in data set [2] (313.15 K, x2 = 0.4911); 5.779e-07 ± 9.7e-09 m3/mol in data set [2] (313.15 K, x2 = 0.5316); 5.878e-07 ± 9.2e-09 m3/mol in data set [2] (313.15 K, x2 = 0.5632); 5.938e-07 ± 8.6e-09 m3/mol in data set [2] (313.15 K, x2 = 0.59). Besides, the excess molar volume amounted to 5.968e-07 ± 8e-09 m3/mol in data set [2] (313.15 K, x2 = 0.6216); 5.956e-07 ± 7.4e-09 m3/mol in data set [2] (313.15 K, x2 = 0.6527); 5.888e-07 ± 6.9e-09 m3/mol in data set [2] (313.15 K, x2 = 0.6834); 5.731e-07 ± 6.3e-09 m3/mol in data set [2] (313.15 K, x2 = 0.7073); 5.728e-07 ± 6.1e-09 m3/mol in data set [2] (313.15 K, x2 = 0.7163); 5.731e-07 ± 6.1e-09 m3/mol in data set [2] (313.15 K, x2 = 0.7223). The excess molar volume in data set [2] (313.15 K, x2 = 0.7489) turned out to be 5.558e-07 ± 6.1e-09 m3/mol; in data set [2] (313.15 K, x2 = 0.7508), 5.513e-07 ± 6.1e-09 m3/mol; in data set [2] (313.15 K, x2 = 0.7749), 5.318e-07 ± 5.3e-09 m3/mol; in data set [2] (313.15 K, x2 = 0.8022) it was 5.039e-07 ± 4.8e-09 m3/mol; in data set [2] (313.15 K, x2 = 0.8303), 4.675e-07 ± 4.5e-09 m3/mol; in data set [2] (313.15 K, x2 = 0.8736), 3.939e-07 ± 4e-09 m3/mol. In addition, the excess molar volume in data set [2] (313.15 K, x2 = 0.8928) was 3.535e-07 ± 3.9e-09 m3/mol; in data set [2] (313.15 K, x2 = 0.9106), 3.105e-07 ± 3.9e-09 m3/mol; in data set [2] (313.15 K, x2 = 0.9242), 2.747e-07 ± 4e-09 m3/mol; in data set [2] (313.15 K, x2 = 0.9453), 2.13e-07 ± 4e-09 m3/mol; in data set [2] (313.15 K, x2 = 0.9634), 1.518e-07 ± 4.4e-09 m3/mol; in data set [2] (313.15 K, x2 = 0.9801) it was 8.6e-08 ± 4.7e-09 m3/mol. Moreover, the excess molar volume in data set [2] (313.15 K, x2 = 0.988) turned out to be 5.32e-08 ± 4.9e-09 m3/mol; in data set [2] (313.15 K, x2 = 0.9948), 2.3e-08 ± 5e-09 m3/mol.
